Data on four compounds can be found in publication PMC7433010, “Exploration of multi‐target effects of 3‐benzoyl‐5‐hydroxychromen‐2‐one in Alzheimer’s disease cell and mouse models” (Aging Cell, 2020).

Data set [1] can be described thus: MTT cytotoxicity in uninduced ∆K280 TauRD‐DsRed 293 cells. Type of data set: cell-based. To be noted: human. As to the method:
(§1) Licochalcone A and five derivative LM compounds were tested (Figure 1a). All six compounds were soluble up to 100 μM in a cell culture medium (Figure S1a). Based on molecular weight (MW), hydrogen bond donors (HBD), hydrogen bond acceptors (HBA), and calculated octanol/water partition coefficient (cLogP), all six compounds meet Lipinski's criteria in predicting oral bioavailability (Lipinski, Lombardo, Dominy, & Feeney, 1997) (Figure S1b). […] To choose the optimal treatment dose used for the best efficacy of the candidate compounds, a specific type of biphasic dose response of a compound called hormesis should take into consideration. Evidence has shown that a wide range of pharmaceutical products display a hermetic dose‐response feature, characterized by a low‐dose stimulation and a high‐dose inhibition (Calabrese et al., 2018; Concetta Scuto et al., 2019; Pilipenko et al., 2019). Therefore, we tested the compounds at a range of doses to find the optimal dose for the best therapeutic effect and the least cytotoxicity. Firstly, MTT assay was performed using uninduced ∆K280 TauRD‐DsRed 293 and retinoic acid‐differentiated SH‐SY5Y cells following treatment with the test compounds (0.1–10 μM) for 3 (for 293 cells) or 7 (for SH‐SY5Ycells) days. […] Congo red is an amyloidogenic dye known to reduce Aβ neurotoxicity (Lorenzo & Yankner, 1994).
(§2) Licochalcone A was purchased from Sigma-Aldrich, St. Louis, MO, USA. In-house LM compounds were synthesized and characterized by NMR spectrum as described (Lee et al., 2012, 2015, 2018). Tet-On ∆K280 TauRD-DsRed 293 and SH-SY5Y cells (Chang et al., 2016) were cultured in Dulbecco’s modified Eagles medium (DMEM) (293) or DMEM-F12 (SH-SY5Y) containing 10% fetal bovine serum (Invitrogen, Carlsbad, CA, USA), 5 μg/ml of blasticidin, and 100 μg/ml of hygromycin (InvivoGen, San Diego, CA, USA). Compound cytotoxicity was assessed by colorimetric assay for measuring cell metabolic activity. Briefly, 5 × 10^4 cells were plated (48-well plates), grown for 20 h, and treated with the test compounds ([…]). […], 20 µl of 3-(4,5-dimethylthiazol-2-yl)-2,5-diphenyltetrazolium bromide (MTT, 5 mg/ml in PBS; Sigma-Aldrich) was added to the cells and incubated at 37°C for 3 h. Then 200 µl of lysis buffer (10% Triton X-100, 0.1 N HCl, 18% isopropanol) was added and the absorbance of the insoluble product at OD 570 nm was measured by a microplate reader (FLx800 fluorescence microplate reader, Bio-Tek, Winooski, VT, USA). The half-maximal inhibitory concentration (IC50) was calculated using the interpolation method.
(§3) Figure S1. Test compounds. (a) Solubility (in cell culture medium) of test compounds. (b) Molecular weight (MW), hydrogen bond donor (HBD), hydrogen bond acceptor (HBA), calculated octanol-water partition coefficient (cLogP), polar surface area (PSA), and predicted blood-brain barrier (BBB) score of test compounds. (c) Cytotoxicity of test compounds against ∆K280 TauRD-DsRed 293 and SH-SY5Y cells using the MTT assay. Uninduced 293 cells were plated on day 1 and treated with 0.1–10 μM test compounds on day 2. Cell viability was measured on day 5 (n = 3). In addition, uninduced SH-SY5Y cells were seeded with all trans retinoic acid (RA; 10 µM) on day 1 and treated with 0.1–10 μM test compounds on day 2. Cell viability was measured on day 9 (n = 3). To normalize, the relative viability in compound untreated cells was set at 100%. IC50 values are listed.

A short description of data set [2]: MTT cytotoxicity in uninduced retinoic acid‐differentiated SH‐SY5Y cells. Type of data set: cell-based. The following applies: human. As to the method:
as §1, §2, §3

A short description of data set [3]: Cytotoxicity by survived cell number in 293 cells expressing ∆K280 TauRD‐DsRed. The format is cell-based. The following applies: human; 293 cells expressing ∆K280 TauRD‐DsRed for 3 days. From the text:
In ∆K280 TauRD‐DsRed 293 cells, a proaggregant (ΔK280) Tau repeat domain (TauRD) containing residues 244–372 of the full‐length 4R2N Tau441 was fused in‐frame with DsRed fluorophore. Compared to the wild‐type TauRD, the poorly folded ΔK280 TauRD formed aggregates, which adversely affected the folding of fused DsRed and thus decreased DsRed fluorescence, as also evidenced by increase in thioflavin S fluorescence emission (Chang et al., 2017). Thioflavin S is a reporter dye for studies of Tau toxicity and pharmacologic prevention in cell model of tauopathy (Pickhardt et al., 2017). It binds to amyloid fibrils but not monomers and gives a distinct increase in fluorescence emission. Inhibition of Tau aggregation may improve DsRed misfolding, leading to increased fluorescence in ΔK280 TauRD‐DsRed‐expressing cells. Utilizing the established Tet‐on ΔK280 TauRD‐DsRed 293 cells (Chang et al., 2016), licochalcone A and LM compounds were tested for effects of reducing Tau misfolding and anti‐oxidation (Figure S2a). Congo red was included for comparison. […] In the following experiments, DsRed fluorescence was measured in wells containing at least 80% viable cells. […] Due to the features of their effectiveness and less cytotoxicity, licochalcone A (1 μM) and LM‐031 (1 μM) were chosen as the candidate compounds for the following experiments. […] Representative DsRed and thioflavin S fluorescent images of ∆K280 TauRD‐DsRed‐expressing cells untreated or treated with congo red (10 µM), licochalcone A (1 µM), or LM‐031 (1 µM) are shown in Figure S2d.
DsRed fluorescence of proaggregant ∆K280 TauRD-DsRed 293 cells was evaluated to reflect Tau aggregation. On day 1, cells were seeded on a 96-well plate in a density of 0.8 × 10^4 cells/well. […] On the fifth day, the cells were stained with Hoechst 33342 (0.1 µg/ml; Sigma-Aldrich) for 30 min to identify total cell number; DsRed fluorescence images (543 nm excitation and 593 nm emission) were automatically captured by using the ImageXpressMICRO high-content imaging system (Molecular Devices, Sunnyvale, CA, USA) and analyzed using MetaXpress image acquisition and analysis software (Molecular Devices). In addition, the cells were fixed with paraformaldehyde (4% in PBS) for 15 minutes, permeabilized with methanol (80%) for 6 minutes at -20°C, incubated with thioflavin S (0.02%; Sigma-Aldrich) and 4’,6-diamidino-2-phenylindole (DAPI) (0.1 μg/ml; Sigma-Aldrich) for 5 minutes, and washed in ethanol (50%). Thioflavin S images ([…]) were captured and analyzed as described. In general, 2 × 10^4 cells in each biological replicate were analyzed.
Figure S2. ΔK280 TauRD-DsRed 293 cells. (a) Experimental flow chart. Cells were plated on day 1. On day 2, the cells were treated with congo red or test compounds for 8 h; addition of doxycycline (Dox; 1 µg/ml) followed. DsRed/thioﬂavin S fluorescence, ROS, and caspase 3 activity were assessed on day 5. (b) Cytotoxicity of the test compounds against 293 cells expressing ∆K280 TauRD-DsRed for 3 days using the survived cell number (n = 3). IC50 values are listed. (c) Dose response curves of LM-031 based on DsRed fluorescence measurement. (d) Fluorescent images of ΔK280 TauRD-DsRed 293 cells untreated or treated with congo red (10 µM), licochalcone A (1 µM), or LM-031 (1 µM). Nuclei were counterstained with Hoechst 33342 (blue), and merged DsRed and Hoechst 33342 signals were shown. In addition, tau aggregation was monitored by staining with thioﬂavin S (green).

As for `COc1ccc(O)c(/C=C/C(=O)c2ccccc2)c1` [LM‐006], the IC50 at 3 days was determined as 6.4 µM in data set [1] and 5.3 µM in data set [3]. The IC50 at 7 days in data set [2] stood at 4.7 µM.

`Cc1ccc(/C=C/C(=O)c2c(O)c3ccccc3oc2=O)cc1` [LM‐016]: the IC50 at 3 days in data set [1] was determined as 9.3 µM; in data set [3], 9.4 µM. Further, in data set [2], inhibition was half-maximal at 6 µM (IC50 at 7 days).

Regarding `COc1cccc(/C=C/C(=O)c2ccc(O)cc2)c1O` [LM‐026], the IC50 at 3 days came to 7.7 µM in data set [1] and 8.5 µM in data set [3]. Also, the IC50 at 7 days in data set [2] was 5.4 µM.

Consider Lucifer yellow, for which the “transport across PAMPA membrane (integrity marker)” value is listed as “undetectable”.
